Data as given in paper PMC10732398 (PLOS Pathogens, 2023).

Test system: ⍺4β7
Experiment: SPR: inhibition by linear peptides of soluble ⍺4β7 binding to a gp120 V2 (cV2 92TH023) surface
Conditions: Fig 7C, 7E
Text: To determine if this is the case, we employed an SPR -based assay. Biosensor surfaces were coated with either CD4 D1D2 or a 42 aa cyclic V2 peptide derived from the subtype E 92TH023 gp120 (cV2 92TH023). A third surface coated with MAdCAM-Ig was employed as a positive control. Soluble ⍺4β7 was passed over these surfaces. We then evaluated the capacity of staggered 15 aa peptides that span either CD4 D2 or gp120 V2 to inhibit this interaction (Fig 7A).
Fig 7 Reciprocal inhibition of gp120 V2 and CD4 binding to ⍺4β7 by D2 and V2 peptides. SPR measurements of soluble ⍺4β7 (analyte) binding to biosensor surfaces coated with CD4 D1D2, 92TH023 cyclic peptide, or MAdCAM-Ig in the absence or presence of either CD4 D2 or gp120 V2 peptides, as indicated. (A) List of overlapping 15 aa peptides corresponding to residues 157–187 of CD4 and residues 158–192 of gp120 V2 (subtype B consensus sequence). (B) Binding of ⍺4β7 to sCD4 D1D2 +/- CD4 D2 peptides. X-axis indicates ⍺4β7 mass bound (RU) at the end of the association phase. (C) Binding of ⍺4β7 to 92TH023 +/- gp120 V2 peptides. (D) Binding of ⍺4β7 to sCD4 D1D2 +/- gp120 V2 peptides. (E) Binding of ⍺4β7 to 92TH023 +/- CD4 D2 peptides. […]
Experiments were performed using a Biacore 3000 instrument (Cytiva Life Sciences) using CM4 or CM5 sensor chips. The data were evaluated using BIAevaluation 4.1.1 software (Cytiva Life Sciences). […]

QKKVEFKIDIVVLA [CD4 P42, linear CD4 D2 peptide, residues 165-178, G β-strand]
inhibition of gp120 binding to ⍺4β7 (in words): inhibits gp120 binding to ⍺4β7
